± gives the expanded uncertainty stated by the source.
Key:
[1] = 298.15 K; for surface tension liquid-gas: Wilhelmy plate; for viscosity: 101.33 kPa, Liquid, Concentric cylinders viscometry
[2] = refractive index (Na D-line) (dimensionless); details: 293.1 K; 101.33 kPa; Liquid; Standard Abbe refractometry
[3] = xn = mol fraction of the nth substance listed; details: x1 = 1; for surface tension liquid-gas: Wilhelmy plate; for viscosity: 101 kPa, Liquid, Concentric cylinders viscometry

| surface tension liquid-gas [1] | viscosity [1] | refractive index [2] | surface tension liquid-gas ([3]; 298.15 K) | viscosity ([3]; 298.15 K) | surface tension liquid-gas ([3]; 303.15 K) | viscosity ([3]; 303.15 K) | surface tension liquid-gas ([3]; 308.15 K) | viscosity ([3]; 308.15 K) | surface tension liquid-gas ([3]; 313.15 K) | viscosity ([3]; 313.15 K) | SMILES |
| --- | --- | --- | --- | --- | --- | --- | --- | --- | --- | --- | --- |
| 35.2 ± 0.04 mN/m | 0.8162 ± 0.0092 mPa·s | 1.429 ± 0.02 |  |  |  |  |  |  |  |  | CN(C)C=O [dimethylformamide] |
|  |  |  | 35.2 ± 0.04 mN/m | 0.8162 ± 0.0092 mPa·s | 34.1 ± 0.04 mN/m | 0.7678 ± 0.0091 mPa·s | 33 ± 0.04 mN/m | 0.7262 ± 0.009 mPa·s | 32 ± 0.03 mN/m | 0.678 ± 0.0089 mPa·s | CN(C)C=O [dimethylformamide] + CCCCCO |
| 24.55 ± 0.062 mN/m | 3.5 ± 0.018 mPa·s | 1.409 ± 0.02 |  |  |  |  |  |  |  |  | CCCCCO [pentan-1-ol] |
|  | 4.593 ± 0.022 mPa·s | 1.418 ± 0.001 |  |  |  |  |  |  |  |  | CCCCCCO [hexan-1-ol] |
|  |  |  | 35.2 ± 0.04 mN/m | 0.8162 ± 0.0092 mPa·s | 34.1 ± 0.04 mN/m | 0.7678 ± 0.0091 mPa·s | 33 ± 0.04 mN/m | 0.7262 ± 0.009 mPa·s | 32 ± 0.03 mN/m | 0.678 ± 0.0089 mPa·s | CN(C)C=O [dimethylformamide] + CCCCCCO |
| 26.47 ± 0.13 mN/m | 5.944 ± 0.038 mPa·s | 1.424 ± 0.02 |  |  |  |  |  |  |  |  | CCCCCCCO [heptan-1-ol] |
|  |  |  | 35.2 ± 0.04 mN/m | 0.8162 ± 0.0092 mPa·s | 34.1 ± 0.04 mN/m | 0.7678 ± 0.0091 mPa·s | 33 ± 0.04 mN/m | 0.7262 ± 0.009 mPa·s | 32 ± 0.03 mN/m | 0.678 ± 0.0089 mPa·s | CN(C)C=O [dimethylformamide] + CCCCCCCO |

Reference: the NIST ThermoML archive (doi:10.1016/j.jct.2012.06.023)
